{
  "source": "paper PMC11956017",
  "about": "“Design of Benzyl-triazolopyrimidine-Based NADPH Oxidase Inhibitors Leads to the Discovery of a Potent Dual Covalent NOX2/MAOB Inhibitor” (Journal of Medicinal Chemistry, 2025)",
  "experiment": "Mass spectrometric analysis of GSH reactivity",
  "conditions": "GSH 10 µM and compound 10 µM (1:1), ammonium acetate 200 mM, pH 7.4",
  "method": "Reactivity between 9a and GSH was measured via mass spectrometry on a Q Exactive UHMR hybrid quadrupole-Orbitrap mass spectrometer (Thermo Fisher) with positive polarity. The instrument parameters used for MS spectra collection were the following: capillary voltage, 1.2 kV; scan range from 350 to 2000 m/z; HCD collision voltage, 0 V; source fragmentation, 0 V; in-source trapping, 0 V. The ion transfer optics was set as follows: injection flatapole, 5 V; inner-flatapole lens, 4 V; bent flatapole, 2 V; transfer multipole, 0 V. The resolution of the instrument was 200,000 at m/z = 400, the nitrogen pressure in the HCD cell was maintained at approximately 9.8 × 10^–11 mbar, and the source temperature was kept at 100 °C. Solutions for flow injection analysis were constituted by dissolving each compound in LC-MS-grade MeOH.",
  "note": "Entries after “also recorded” stand apart in the source; their conditions may differ.",
  "data": [
    {"smiles": "C#CCN(C)Cc1ccc(Cn2nnc3c(Sc4nc5ccccc5o4)ncnc32)cc1", "note": "[Compound 9a, N-(4-((7-(Benzo[d]oxazol-2-ylthio)-3H-[1,2,3]triazolo[4,5-d]pyrimidin-3-yl)methyl)benzyl)-N-methylprop-2-yn-1-amine]", "values": [
      {"measurement": "adduct formation with glutathione", "result": "readily reacted with GSH; also recorded: able to form an adduct with glutathione"}
    ]}
  ]
}
